Patent US10294246B2, “Substituted boronic acids and boronate esters as immunoproteasome inhibitors” (MERCK PATENT GMBH, priority 2014, dated 2019)

Legend:
[1] = target: human immunoproteasome (LMP7) (Homo sapiens (Human), UniProt P28062); assay: Determination of LMP7 activity (fluorescence intensity assay, Suc-LLVY-AMC); format: biochemical; details: for Selectivity LMP7 vs Beta5: LMP7 versus Beta5; for IC50: purified human immunoproteasome 0.25 nM, Suc-LLVY-AMC 40 μM
In short: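 0.25 nM purified human immunoproteasome preincubated 20 min at 25 °C with serially diluted compounds in 50 mM Tris pH 7.4, 0.03% SDS, 1 mM EDTA, 1% DMSO. Reaction started with 40 μM Suc-LLVY-AMC, run 60 min at 37 °C. Fluorescence read at ex 350/em 450 nm.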

[2] = target: human constitutive proteasome (Beta5) (Homo sapiens (Human), UniProt P28074); assay: Determination of Beta5 activity (fluorescence intensity assay, Suc-LLVY-AMC); format: biochemical; details: purified human constitutive proteasome 1.25 nM, Suc-LLVY-AMC 40 μM
In short: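 Purified constitutive proteasome (1.25 nM) was preincubated with compounds 20 min at 25 °C in 50 mM Tris pH 7.4, 0.03% SDS, 1 mM EDTA, 1% DMSO. Suc-LLVY-AMC (40 μM) was then added for 60 min at 37 °C. AMC fluorescence was read at ex 350/em 450 nm.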

SMILES	Selectivity LMP7 vs Beta5 [1]	IC50 [1] [nM]	IC50 [2] [nM]
COc1cccc2c(C[C@H](NC(=O)Cc3ccccc3)B(O)O)coc12 [Compound No. 92, [(1R)-2-(7-methoxybenzofuran-3-yl)-1-[(2-phenylacetyl)amino]ethyl]-boronic acid]	+++++ (Selectivity ≥ 100)	< 50	50 to 500
CO[C@@H](C(=O)N[C@@H](CC1COc2c(C)cccc21)B(O)O)c1ccccc1 (stereo partly drawn) [Compound No. 93, [(1R)-1-[[(2R)-2-methoxy-2-phenyl-acetyl]amino]-2-(7-methyl-2,3-dihydrobenzofuran-3-yl)ethyl]boronic acid]	+++++ (Selectivity ≥ 100)	< 50	> 5000
Cc1ccc2c(C[C@H](NC(=O)Cc3ccccc3)B(O)O)coc2c1C [Compound No. 94, [(1R)-2-(6,7-dimethylbenzofuran-3-yl)-1-[(2-phenylacetyl)amino]ethyl]boronic acid]	+++++ (Selectivity ≥ 100)	< 50	500 to 5000
COc1ccc(CCC(=O)N[C@@H](Cc2coc3c(C)c(C)ccc23)B(O)O)nc1 [Compound No. 95, [(1R)-2-(6,7-dimethylbenzofuran-3-yl)-1-[3-(5-methoxy-2-pyridyl)propanoylamino]ethyl]boronic acid]	+++++ (Selectivity ≥ 100)	< 50	500 to 5000
C[C@H](C(=O)N[C@@H](Cc1coc2ccccc12)B(O)O)c1ccccc1C(=O)N(C)C [Compound No. 96, [(1R)-2-(benzofuran-3-yl)-1-[[(2S)-2-[2-(dimethylcarbamoyl)phenyl]-propanoyl]amino]ethyl]boronic acid]	+++++ (Selectivity ≥ 100)	50 to 500	> 5000
C[C@@H](C(=O)N[C@@H](Cc1coc2ccccc12)B(O)O)c1ccccc1C(=O)N(C)C [Compound No. 97, [(1R)-2-(benzofuran-3-yl)-1-[[(2R)-2-[2-(dimethylcarbamoyl)-phenyl]propanoyl]amino]ethyl]boronic acid]	+++++ (Selectivity ≥ 100)	50 to 500	> 5000
O=C(Cc1ccccc1-c1ccccc1)N[C@@H](Cc1coc2ccccc12)B(O)O [Compound No. 98, [(1R)-2-(benzofuran-3-yl)-1-[[2-(2-phenylphenyl)acetyl]amino]-ethyl]boronic acid]	++++ (70 ≤ Selectivity < 100)	< 50	500 to 5000
C[C@@H](C(=O)N[C@@H](C[C@@H]1COc2ccccc21)B(O)O)c1ccccc1C(=O)N(C)C [Compound No. 99, [(1R)-2-[(3S)-2,3-dihydrobenzofuran-3-yl]-1-[[(2R)-2-[2-(dimethylcarbamoyl)phenyl]propanoyl]amino]ethyl]boronic acid]	+++++ (Selectivity ≥ 100)	50 to 500	> 5000
Cc1cccc2c1OCC2C[C@H](NC(=O)Cc1ccccc1C(=O)N(C)C)B(O)O (stereo partly drawn) [Compound No. 100, [(1R)-1-[[2-[2-(dimethylcarbamoyl)phenyl]acetyl]amino]-2-(7-methyl-2,3-dihydrobenzofuran-3-yl)ethyl]boronic acid]	+++++ (Selectivity ≥ 100)	50 to 500	> 5000
Cc1ccc2c(c1C)OCC2C[C@H](NC(=O)Cc1ccccc1)B(O)O (stereo partly drawn) [Compound No. 101, [(1R)-2-(6,7-dimethyl-2,3-dihydrobenzofuran-3-yl)-1-[(2-phenylacetyl)-amino]ethyl]boronic acid]	+++++ (Selectivity ≥ 100)	< 50	> 5000
COc1ccc(CCC(=O)N[C@@H](CC2COc3c2ccc(C)c3C)B(O)O)nc1 (stereo partly drawn) [Compound No. 102, [(1R)-2-(6,7-dimethyl-2,3-dihydrobenzofuran-3-yl)-1-[3-(5-methoxy-2-pyridyl)propanoylamino]ethyl]boronic acid]	+++++ (Selectivity ≥ 100)	50 to 500	> 5000
CC(=O)Nc1ccccc1CC(=O)N[C@@H](Cc1coc2ccccc12)B(O)O [Compound No. 103, [(1R)-1-[[2-(2-acetamidophenyl)acetyl]amino]-2-(benzofuran-3-yl)ethyl]boronic acid]	++++ (70 ≤ Selectivity < 100)	–	500 to 5000
Cc1cccc2c(C[C@H](NC(=O)Cc3ccccc3C#N)B(O)O)coc12 [Compound No. 104, [(1R)-1-[[2-(2-cyanophenyl)acetyl]amino]-2-(7-methylbenzofuran-3-yl)ethyl]boronic acid]	+++++ (Selectivity ≥ 100)	< 50	500 to 5000
N#Cc1ccccc1CC(=O)N[C@@H](C[C@@H]1COc2ccccc21)B(O)O [Compound No. 105, [(1R)-1-[[2-(2-cyanophenyl)acetyl]amino]-2-[(3S)-2,3-dihydrobenzofuran-3-yl]ethyl]boronic acid]	+++++ (Selectivity ≥ 100)	< 50	500 to 5000
C[C@H](C(=O)N[C@@H](C[C@H]1COc2ccccc21)B(O)O)c1ccccc1C(=O)N(C)C [Compound No. 106, [(1R)-2-[(3R)-2,3-dihydrobenzofuran-3-yl]-1-[[(2S)-2-[2-(dimethylcarbamoyl)phenyl]propanoyl]amino]ethyl]boronic acid]	+++++ (Selectivity ≥ 100)	< 50	> 5000
C[C@H](C(=O)N[C@@H](C[C@@H]1COc2ccccc21)B(O)O)c1ccccc1C(=O)N(C)C [Compound No. 107, [(1R)-2-[(3S)-2,3-dihydrobenzofuran-3-yl]-1-[[(2S)-2-[2-(dimethylcarbamoyl)phenyl]propanoyl]amino]ethyl]boronic acid]	++ (10 ≤ Selectivity < 50)	500 to 5000	> 5000
COc1ccc(CC(=O)N[C@@H](Cc2cc3ccccc3o2)B(O)O)cc1 [Compound No. 108, [(1R)-2-(benzofuran-2-yl)-1-[[2-(4-methoxyphenyl)acetyl]-amino]ethyl]boronic acid]	+++++ (Selectivity ≥ 100)	< 50	500 to 5000
CCO[C@@H](C(=O)N[C@@H](CC1COc2c(C)cccc21)B(O)O)c1ccccc1 (stereo partly drawn) [Compound No. 109, [(1R)-1-[[(2R)-2-ethoxy-2-phenyl-acetyl]amino]-2-(7-methyl-2,3-dihydrobenzofuran-3-yl)ethyl]boronic acid]	+++++ (Selectivity ≥ 100)	< 50	> 5000
O=C(Cc1ccccc1)N[C@@H](Cc1cc2ccccc2o1)B(O)O [Compound No. 110, [(1R)-2-(benzofuran-2-yl)-1-[(2-phenylacetyl)amino]ethyl]boronic acid]	++++ (70 ≤ Selectivity < 100)	50 to 500	> 5000
CCO[C@@H](C(=O)N[C@@H](CC1COc2ccccc21)B(O)O)c1ccccc1 (stereo partly drawn) [Compound No. 111, [(1R)-2-(2,3-dihydrobenzofuran-3-yl)-1-[[(2R)-2-ethoxy-2-phenyl-acetyl]amino]ethyl]boronic acid]	+++++ (Selectivity ≥ 100)	< 50	> 5000
O=C(Cc1ccccn1)NC(Cc1coc2ccccc12)B(O)O (centres unmarked) [Compound No. 112, [2-(benzofuran-3-yl)-1-[[2-(2-pyridyl)acetyl]amino]ethyl]boronic acid]	+++++ (Selectivity ≥ 100)	< 50	500 to 5000
CCOc1ccc(CC(=O)N[C@@H](Cc2coc3c(Cl)cccc23)B(O)O)nc1 [Compound No. 113, [(1R)-2-(7-chlorobenzofuran-3-yl)-1-[[2-(5-ethoxy-2-pyridyl)acetyl]amino]ethyl]boronic acid]	+++++ (Selectivity ≥ 100)	< 50	500 to 5000
COc1ccc(CC(=O)N[C@@H](C[C@@H]2COc3ccccc32)B(O)O)cc1 [Compound No. 114, [(1R)-2-[(3S)-2,3-dihydrobenzofuran-3-yl]-1-[[2-(4-methoxyphenyl)-acetyl]amino]ethyl]boronic acid]	+++++ (Selectivity ≥ 100)	< 50	500 to 5000
COc1ccc(CC(=O)N[C@@H](C[C@H]2COc3ccccc32)B(O)O)cc1 [Compound No. 115, [(1R)-2-[(3R)-2,3-dihydrobenzofuran-3-yl]-1-[[2-(4-methoxyphenyl)-acetyl]amino]ethyl]boronic acid]	+++++ (Selectivity ≥ 100)	< 50	> 5000
N#Cc1ccccc1CC(=O)N[C@@H](Cc1coc2c(Cl)cccc12)B(O)O [Compound No. 116, [(1R)-2-(7-chlorobenzofuran-3-yl)-1-[[2-(2-cyanophenyl)acetyl]amino]-ethyl]boronic acid]	+++++ (Selectivity ≥ 100)	< 50	500 to 5000
COc1ccc(CC(=O)N[C@H](C[C@@H]2COc3ccccc32)B(O)O)cc1 [Compound No. 117, [(1S)-2-[(3S)-2,3-dihydrobenzofuran-3-yl]-1-[[2-(4-methoxyphenyl)-acetyl]amino]ethyl]boronic acid]	+++++ (Selectivity ≥ 100)	50 to 500	> 5000
COc1ccc(CC(=O)N[C@H](C[C@H]2COc3ccccc32)B(O)O)cc1 [Compound No. 118, [(1S)-2-[(3R)-2,3-dihydrobenzofuran-3-yl]-1-[[2-(4-methoxyphenyl)-acetyl]amino]ethyl]boronic acid]	+++++ (Selectivity ≥ 100)	50 to 500	> 5000
